Laboratory results: paper PMC4696031 (Cancer, 2013)
Several values for one entry are separate records, joined by “and”; a condition that tells them apart may be missing. Identical values can stand only once.

Legend:
[1] = test system: advanced UC; conditions: vinflunine plus BSC, vs 1.5 months BSC alone, P = .001; cited from earlier work
[2] = Phase 2 trial: plasma pharmacokinetics; format: in vivo, patients; conditions: for Tmax: first 2-hour intravenous infusion of 300 mg
[3] = test system: locally advanced or metastatic urothelial cancer; test: Phase 2 trial: tumor response; format: in vivo, patients
[4] = test system: solid tumors; conditions: cited from earlier work
[5] = test system: patients with locally advanced or metastatic urothelial cancer; test: Phase 2 trial: safety, adverse events; format: in vivo
[6] = test system: UC cell lines; conditions: cited from earlier work
[7] = test system: urothelial cancer; conditions: cited from earlier work
[8] = test system: metastatic UC; conditions: cited from earlier work; for long-term progression-free survival (PFS): at 5 years; for complete response (CR) rate / median overall survival (mOS) / overall response rate: first-line, phase 3
[9] = post hoc subgroup: disease progression >6 months after most recent chemotherapy
[10] = post hoc subgroup: disease progression ≤6 months after most recent chemotherapy
[11] = subgroup: patients who did not escalate
[12] = subgroup: patients who escalated to volasertib 350 mg

CC[C@]12C=CCN3CC[C@@]4(c5cc([C@@]6(C(=O)OC)C[C@@H]7C[C@@H](C(C)(F)F)CN(Cc8c6[nH]c6ccccc86)C7)c(OC)cc5N(C)[C@H]4[C@@](O)(C(=O)OC)[C@@H]1OC(C)=O)[C@@H]32 [Vinflunine, vinflunine]
median PFS (mPFS) [1]: 3.0 months

CC[C@@H]1C(=O)N(C)c2cnc(Nc3ccc(C(=O)N[C@H]4CC[C@H](N5CCN(CC6CC6)CC5)CC4)cc3OC)nc2N1C(C)C [Volasertib]
effect of sex, age, weight, body mass index, or body surface area on PK profile ([2]; data not shown): not significantly affected
AUC(0-inf) ([2]; human, plasma, iv, 300 mg): 5470 ng·h/mL
Cmax ([2]; human, plasma, iv, 300 mg): 253 ng/mL
MRT ([2]; human, plasma, iv, 300 mg): 136 h
Vd ([2]; human, plasma, iv, 300 mg): 7470 L
clearance ([2]; human, plasma, iv, 300 mg): 914 mL/min
half-life ([2]; human, plasma, iv, 300 mg): 150 h
Tmax ([2]; human, plasma, iv, 300 mg, Median): ~2 h
Tmax ([2]; human, plasma, iv, 300 mg, Range): 1.53 to 4.17 h
PK behavior ([2]; plasma concentration-time course): multiexponential PK behavior
Disease control: PR + SD ([3]; N = 50): 20 (40) No. of patients (%)
OS rate at 3 mo ([3]; N = 50): 77.2%
OS rate at 6 mo ([3]; N = 50): 55.5%
OS: Median [95% CI] ([3]; N = 50): 8.5 [3.9-12.1] mo
PFS rate at 3 mo ([3]; N = 50): 32%
PFS rate at 6 mo ([3]; N = 50): 20%
PFS: Median [95% CI] ([3]; N = 50): 6.1 [5.6-11.1] wk
patients with partial response ([3]; N = 50): 14%
patients with stable disease ([3]; N = 50): 26%
Response: SD ([3]; best overall response, N = 50): 13 (26) No. of patients (%)
patients who achieved a PR as best overall response ([3]; final analysis, N = 50): 7 patients
overall response rate ([3]; final analysis, N = 50, all PRs): 14%
Duration of disease control, PR or SD: Median ([3]; in vivo): 27.0 wk
Duration of disease control, PR or SD: range ([3]; in vivo): 10.1-77.3 wk
patients with PR at preplanned interim efficacy analysis ([3]; of the first 20 patients who completed 4 treatment cycles): 2 patients
mPFS [3, 9]: 10.1 weeks
response rate [3, 9]: 15%
mPFS [3, 10]: 5.6 weeks
response rate [3, 10]: 14%
Duration of PR: range ([3]; responders): 29.1-77.3 wk
PR / response rate [3, 11]: 7.4% and 7%
mOS [3, 11]: 5.8 months
mPFS [3, 11]: 6.0 weeks and 6 weeks
PR / response rate [3, 12]: 21.7% and 22%
mOS [3, 12]: 10.6 months
mPFS [3, 12]: 11.1 weeks
maximum tolerated dose ([4]; dose-escalation clinical phase 1 trial): 400 mg
recommended dose for phase 2 trials ([4]; in vivo, iv): 300 mg
tumor response in phase 1 trials ([4]; patients with heavily pretreated, metastatic UC): partial responses
Adverse event leading to dose reduction: Diarrhea ([5]; human, in vivo): 1 (2) No. of Patients (%)
Adverse event leading to dose reduction: ECG: Prolonged QT ([5]; human, in vivo): 1 (2) No. of Patients (%)
Adverse event leading to dose reduction: Fatigue ([5]; human, in vivo): 1 (2) No. of Patients (%)
Adverse event leading to dose reduction: Nausea ([5]; human, in vivo): 1 (2) No. of Patients (%)
Adverse event leading to dose reduction: Neutropenia ([5]; human, in vivo): 2 (4) No. of Patients (%)
Adverse event leading to dose reduction: Thrombocytopenia ([5]; human, in vivo): 3 (6) No. of Patients (%)
febrile neutropenia (grade 3) ([5]; human, in vivo): 1 episode
grade 3 and 4 anemia ([5]; human, in vivo): 16%
grade 3 and 4 neutropenia ([5]; human, in vivo): 28%
grade 3 and 4 thrombocytopenia ([5]; human, in vivo): 20%
patients with dose reductions because of unacceptable toxicities in cycle 1 ([5]; human, in vivo): 4 patients
patients with dose reductions because of unacceptable toxicities, overall ([5]; human, in vivo): 14%
treatment discontinuation because of AE ([5]; human, in vivo): 1 n
clinically relevant side effect such as arrhythmias or cardiac dysfunction ([5]; in vivo): No clinically relevant side effect
cumulative toxicity ([5]; in vivo): No cumulative toxicity was observed
grade 3 QTc prolongation ([5]; in vivo): One patient
safety profile ([5]; in vivo): acceptable safety profile
deaths attributed to the study treatment ([5]; three patients died during the study because of disease progression): none
mitotic arrest and apoptosis in UC cells [6]: promote mitotic arrest and apoptosis
proliferation of multiple UC cell lines ([6]; ref data on file, Boehringer Ingelheim): inhibited the proliferation

Cc1ccc(Nc2nccc(N(C)c3ccc4c(C)n(C)nc4c3)n2)cc1S(N)(=O)=O [pazopanib]
antitumor activity in nonrandomized phase 2 trials [7]: modest activity

gemcitabine plus cisplatin [GC]
long-term progression-free survival (PFS) [8]: 9.8%
complete response (CR) rate [8]: approximately 12%
median overall survival (mOS) [8]: 13.8 months
overall response rate [8]: 49%

methotrexate, vinblastine, doxorubicin, and cisplatin [MVAC]
long-term progression-free survival (PFS) [8]: 11.3%
complete response (CR) rate [8]: approximately 12%
median overall survival (mOS) [8]: 14.8 months
overall response rate [8]: 46%
